Laboratory results reported in US20260250325A1, “Antiviral Polypeptide Membrane Fusion Inhibitor, and Preparation Method and Application Thereof” (priority 2025, published 2026).
Where a SMILES comes first, the peptide text is derived from it. The star is where a group is joined. Succinyl(4-O-cholesteryl) = CC(C)CCC[C@@H](C)[C@H]1CC[C@H]2[C@@H]3CC=C4C[C@@H](OC(=O)CCC(=O)*)CC[C@]4(C)[C@H]3CC[C@]12C

Columns and labels:
hMPV-N46 (127-172) = target: T1, hMPV-N46 (127-172) (Human metapneumovirus, UniProt Q6WB98); test: SPR affinity to hMPV-N46 coupled on CM5 chip; assay type: binding
T1 construct: hMPV-N46 (127-172)
Experimental: (§1) hMPV and hPIV were two viruses having a typical Class I fusion protein-F protein. An F protein precursor F0 was cracked into F1 and F2 subunits. […] When the compound flowed through a chip surface, changes in an SPR signal were monitored in real time, binding and dissociation processes were recorded, and a binding rate constant (ka) and a dissociation rate constant (kd) were further obtained through kinetic analysis, thereby calculating an equilibrium dissociation constant (KD=kd/ka).
(§2) A CM5 chip with a catalog number 29149603, an amino coupling reagent kit with a catalog number BR100050, HBS-EP+Buffer (10×), sodium acetate (pH 4.0), and a 10 mM glycine-HCl buffer (pH 2.0) were all purchased from GE Health.
(§3) CM5 chip coupling: Channels 2 and 4 of the CM5 chip were activated for 7 min by using a freshly-prepared mixture of 50 mM Hydroxy succinimide (NHS) and 200 mM 1-(3-Dimethylaminopropyl)-3-ethylcarbodiimide (EDC) according to 1:1; and then, hMPV-N46 or hPIV-N51 was diluted and dissolved with sodium acetate with 4.0 pH to a concentration of 30 μM, with a flow rate of 10 μl/min and time of 600 s. An experimental buffer was HBS-EP+buffer (1×). Finally, the chip was blocked with 1 M ethanolamine. The instrument was set to a temperature of 25° C.
(§4) Affinity detection: the buffer used in the experiment was HBS-EP+buffer (1×), and a multi-cycle dynamic mode was used. Channels 1 and 3 of the chip served as blank reference channels; polypeptides to be detected sequentially flowed through Channels 2 and 4 at concentrations of 0 μM, 0.04 µM, 0.12 µM, 0.37 μM, 1.11 µM, 3.33 µM, 10 µM, and 30 μM; the flow rate was 30 μl/min, binding was performed for 180 s, and dissociation was performed for 120 s. Finally, the chip was regenerated by injecting 10 mM glycine (pH 2.0). The instrument was set to a temperature of 25° C.

hPIV-N51 (139-189) = target: T2, hPIV-N51 (139-189) (Human parainfluenza 3 virus, UniProt P06828); test: SPR affinity to hPIV-N51 coupled on CM5 chip; assay type: binding
T2 construct: hPIV-N51 (139-189)
Experimental: as §1, §2, §3, §4

hMPV A2 = assay type: cell-based; details: Vero cells, plaque reduction
Experimental: (§5) African green monkey kidney cells (Vero) were sourced from the ATCC, with catalog number CCL-81. The cells were cultured in a DMEM culture solution in which 10% fetal bovine serum, 1% non-essential amino acids, 1% sodium pyruvate, 1% L-glutamine, 100 U/ml penicillin, and 100 μg/ml streptomycin were added.
(§6) A hMPV plaque experiment culture medium consisted of an Opti-MEM culture solution added with 1% non-essential amino acids, 100 U/mL penicillin, and 100 μg/mL streptomycin.
(§7) hMPV virus strains A2 and B1 were constructed by WuXi App Tec.
(§8) This study used a plaque reduction experiment to detect the in-vitro activity of a test sample against the hMPV virus strains A2 and B1.
(§9) The test sample and an experimental system were tested at 8 concentrations in duplicated wells. The Vero cells were digested with trypsin and then diluted to a concentration of 400,000 cells per milliliter by using a cell culture solution containing 2% serum. The diluted cells were added to a 96-well cell test board, with 100 μL per well, corresponding to 40000 cells per well. The cells were cultured overnight in a 37° C. incubator with 5% CO2.
(§10) On the second day, the test sample was diluted in an experimental culture medium at a fold ratio. The sample diluted at a fold ratio and an equal volume of virus (approximately 200 PFU per well) were well mixed and incubated at 33° C. in 5% CO2 for 1 h. Then, the culture solution in the 96-well cell test board was discarded, the sample virus mixed solution (100 μL) was added to the 96-well cell culture plate, and incubated at 37° C. in 5% CO2 for 2 hours. After 2 h, the sample virus mixed solution was discarded, 200 μL of an experiment culture medium containing the test sample with a corresponding concentration was added, and the culture solution contained 0.8% CMC and 5 μg/ml trypsin. A final concentration of DMSO in the culture solution was 0.5%. A system control antibody was directly added to the experiment culture solution containing 0.8% CMC and 5 μg/ml trypsin. A cell control (cells, without compound treatment or viral infection) and a viral control (cell infection virus, without compound treatment) were set. The cells were cultured for 1 day in the 33° C. incubator with 5% CO2.
(§11) The cells were fixed with 4% paraformaldehyde, and then permeabilization was performed with 0.5% Triton X-100. After the plate was washed with DPBS, a hMPV specific antibody (1:2000 dilution) was added and incubated at 37° C. for 1.5 h. Then, a secondary antibody (1:1000 dilution) was added and incubated at 37° C. for 1 hour. The secondary antibody was discarded, a TrueBlue solution was added, dyeing was performed for approximately 10 minutes; and the plate was washed with running water and then air-dried, and the number of spots in each well was counted by using a microplate imaging counter.
(§12) Raw data was used for analyzing the antiviral activity of the test samples. A calculation formula was shown as follows.
(§13) % inhibition rate=100−(sample value-cell control average value)/(virus control average value-cell control average value)×100
(§14) Non-linear fitting analysis was performed on the inhibition rate of the sample by using GraphPad Prism (version 10), so as to calculate an EC50 value for the sample. A fitting formula was log (inhibitor) vs. response-Variable slope (four parameters).

hMPV B1 = assay type: cell-based; details: Vero cells, plaque reduction
Experimental: as §5, §6, §7, §8, §9, §10, §11, §12, §13, §14

T1 sequence (Q6WB98 127-172): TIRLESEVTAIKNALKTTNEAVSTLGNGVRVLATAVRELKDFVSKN
T2 sequence (P06828 139-189): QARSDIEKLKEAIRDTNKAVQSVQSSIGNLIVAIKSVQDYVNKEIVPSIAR

Compound	Kd (hMPV-N46 (127-172)) [nM]	Kd (hPIV-N51 (139-189)) [nM]	EC50 (hMPV A2) [nM]	EC50 (hMPV B1) [nM]
CC[C@H](C)[C@H](NC(=O)[C@H](CCCCN)NC(=O)[C@H](CCC(=O)O)NC(=O)[C@H](CC(C)C)NC(=O)[C@H](CO)NC(=O)[C@H](CCC(N)=O)NC(=O)[C@H](CC(N)=O)NC(=O)[C@@H](NC(=O)[C@H](CCCCN)NC(=O)[C@H](CCC(=O)O)NC(=O)[C@H](CC(N)=O)NC(=O)[C@@H](NC(=O)[C@H](CCC(N)=O)NC(=O)[C@H](CO)NC(=O)[C@H](C)NC(=O)[C@H](CC(=O)O)NC(=O)[C@H](Cc1ccccc1)NC(=O)[C@@H](NC(=O)[C@H](CC(C)C)NC(=O)[C@H](CCC(=O)O)NC(=O)[C@H](CC(=O)O)NC(=O)[C@H](Cc1ccc(O)cc1)NC(C)=O)C(C)C)C(C)C)[C@@H](C)CC)C(=O)N[C@@H](CCCNC(=N)N)C(=O)N[C@@H](CCCCN)C(=O)N[C@@H](CO)C(=O)N[C@@H](CC(=O)O)C(=O)N[C@@H](CCC(=O)O)C(=O)N[C@@H](CC(C)C)C(=O)N[C@@H](CC(C)C)C(=O)N[C@@H](Cc1c[nH]cn1)C(=O)N[C@@H](CC(N)=O)C(=O)N[C@H](C(=O)N[C@@H](CCC(=O)O)C(=O)N[C@@H](C)C(=O)N[C@@H](C)C(=O)N[C@@H](C)C(=O)N[C@@H](CCCCN)C(=O)N[C@@H](CCCCNC(=O)CCC(=O)O[C@H]1CC[C@@]2(C)C(=CC[C@H]3[C@@H]4CC[C@H]([C@H](C)CCCC(C)C)[C@@]4(C)CC[C@@H]32)C1)C(N)=O)C(C)C [Compound 30] (Ac-YDELVFDASQVNEKINQSLEKIRKSDELLHNVEAAAKK(Succinyl(4-O-cholesteryl))-NH2)	187	1020	94.8	51.3
CC[C@H](C)[C@H](NC(=O)[C@H](CO)NC(=O)[C@H](C)NC(=O)[C@H](CC(=O)O)NC(=O)[C@H](Cc1ccccc1)NC(C)=O)C(=O)N[C@@H](CCC(=O)O)C(=O)N[C@@H](CCC(=O)O)C(=O)N[C@H](C(=O)N[C@@H](CC(N)=O)C(=O)N[C@@H](CCCNC(=N)N)C(=O)N[C@@H](CCCNC(=N)N)C(=O)N[C@H](C(=O)N[C@@H](CCC(=O)O)C(=O)N[C@@H](CCC(=O)O)C(=O)N[C@@H](CO)C(=O)N[C@@H](CC(C)C)C(=O)N[C@@H](CCCNC(=N)N)C(=O)N[C@@H](CCCNC(=N)N)C(=O)N[C@H](C(=O)N[C@@H](CCC(=O)O)C(=O)N[C@@H](CCC(=O)O)C(=O)N[C@@H](CO)C(=O)N[C@@H](CC(=O)O)C(=O)N[C@@H](CCCNC(=N)N)C(=O)N[C@@H](CCCNC(=N)N)C(=O)N[C@@H](CC(C)C)C(=O)N[C@@H](CCC(=O)O)C(=O)N[C@@H](CCC(=O)O)C(=O)N[C@H](C(=O)N[C@@H](CC(N)=O)C(=O)N[C@@H](C)C(=O)N[C@@H](CCC(=O)O)C(=O)N[C@@H](C)C(=O)N[C@@H](C)C(=O)N[C@@H](C)C(=O)N[C@@H](CCCCN)C(=O)N[C@@H](CCCCNC(=O)CCC(=O)O[C@H]1CC[C@@]2(C)C(=CC[C@H]3[C@@H]4CC[C@H]([C@H](C)CCCC(C)C)[C@@]4(C)CC[C@@H]32)C1)C(N)=O)C(C)C)[C@@H](C)CC)[C@@H](C)CC)C(C)C [Compound 42] (Ac-FDASIEEVNRRIEESLRRIEESDRRLEEVNAEAAAKK(Succinyl(4-O-cholesteryl))-NH2)	533	485	26.1	10.1
Ac-WDEFDASISQVNEKINQSLEEIRKSDELLHNVNAGLGSGSGK(Succinyl(4-O-cholesteryl))-NH2 [Compound 27]	2920	812	78.3	10.5
CC[C@H](C)[C@H](NC(=O)[C@H](CCCCN)NC(=O)[C@H](CCCCN)NC(=O)[C@H](CC(C)C)NC(=O)[C@H](CO)NC(=O)[C@H](CCC(=O)O)NC(=O)[C@H](CCC(=O)O)NC(=O)[C@@H](NC(=O)[C@H](CCCCN)NC(=O)[C@H](CCCCN)NC(=O)[C@H](CC(N)=O)NC(=O)[C@@H](NC(=O)[C@H](CCC(=O)O)NC(=O)[C@H](CCC(=O)O)NC(=O)[C@@H](NC(=O)[C@H](CCCCN)NC(=O)[C@H](CCCCN)NC(=O)[C@H](CC(=O)O)NC(=O)[C@H](Cc1ccccc1)NC(=O)[C@H](CCC(=O)O)NC(=O)[C@H](CC(=O)O)NC(=O)[C@H](Cc1c[nH]c2ccccc12)NC(C)=O)[C@@H](C)CC)C(C)C)[C@@H](C)CC)C(=O)N[C@@H](CCC(=O)O)C(=O)N[C@@H](CCC(=O)O)C(=O)N[C@@H](CO)C(=O)N[C@@H](CC(=O)O)C(=O)N[C@@H](CCCCN)C(=O)N[C@@H](CCCCN)C(=O)N[C@@H](CC(C)C)C(=O)N[C@@H](CCC(=O)O)C(=O)N[C@@H](C)C(=O)N[C@@H](C)C(=O)N[C@@H](C)C(=O)N[C@@H](CCCCN)C(=O)N[C@@H](CCCCNC(=O)CCC(=O)O[C@H]1CC[C@@]2(C)C(=CC[C@H]3[C@@H]4CC[C@H]([C@H](C)CCCC(C)C)[C@@]4(C)CC[C@@H]32)C1)C(N)=O [Compound 13] (Ac-WDEFDKKIEEVNKKIEESLKKIEESDKKLEAAAKK(Succinyl(4-O-cholesteryl))-NH2)	3210	2280	11.7	6.18
CC[C@H](C)[C@H](NC(=O)[C@H](CCCCN)NC(=O)[C@H](CCCCN)NC(=O)[C@H](CC(C)C)NC(=O)[C@H](CO)NC(=O)[C@H](CCC(=O)O)NC(=O)[C@H](CCC(=O)O)NC(=O)[C@@H](NC(=O)[C@H](CCCCN)NC(=O)[C@H](CCCCN)NC(=O)[C@H](CC(N)=O)NC(=O)[C@@H](NC(=O)[C@H](CCC(=O)O)NC(=O)[C@H](CCC(=O)O)NC(=O)[C@@H](NC(=O)[C@H](CCCCN)NC(=O)[C@H](CCCCN)NC(=O)[C@H](CC(=O)O)NC(=O)[C@H](Cc1ccccc1)NC(=O)[C@H](CCC(=O)O)NC(=O)[C@H](CC(=O)O)NC(=O)[C@H](Cc1c[nH]c2ccccc12)NC(C)=O)[C@@H](C)CC)C(C)C)[C@@H](C)CC)C(=O)N[C@@H](CCC(=O)O)C(=O)N[C@@H](CCC(=O)O)C(=O)N[C@@H](CO)C(=O)N[C@@H](CC(=O)O)C(=O)N[C@@H](CCCCN)C(=O)N[C@@H](CCCCN)C(=O)N[C@@H](CC(C)C)C(=O)N[C@@H](CCC(=O)O)C(=O)N[C@@H](CCC(=O)O)C(=O)N[C@H](C(=O)N[C@@H](CC(N)=O)C(=O)N[C@@H](C)C(=O)N[C@@H](CCC(=O)O)C(=O)N[C@@H](C)C(=O)N[C@@H](C)C(=O)N[C@@H](C)C(=O)N[C@@H](CCCCN)C(=O)N[C@@H](CCCCNC(=O)CCC(=O)O[C@H]1CC[C@@]2(C)C(=CC[C@H]3[C@@H]4CC[C@H]([C@H](C)CCCC(C)C)[C@@]4(C)CC[C@@H]32)C1)C(N)=O)C(C)C [Compound 40] (Ac-WDEFDKKIEEVNKKIEESLKKIEESDKKLEEVNAEAAAKK(Succinyl(4-O-cholesteryl))-NH2)	2470	2270	13.8	7.47
